Test results: the supplement of paper PMC10307832

Assays:
Test in all cases: relative viability (nuclei count vs DMSO), 5 days (fraction); higher = more cells survive
[1] = compound: Cn1cc(-c2cnn3c(N)c(Br)c([C@@H]4CCCNC4)nc23)cn1 + COc1cc2c(Oc3ccc(NC(=O)C4(C(=O)Nc5ccc(F)cc5)CC4)cc3F)ccnc2cc1OCCCN1CCOCC1 [Foretinib] (partner 0.25 µM)
In short: (§1)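 Values are medians from duplicate plates. Each reflects relative viability, defined as the nuclei count of treated wells over that of vehicle wells. Lung cancer cell lines in 1536-well plates were pin-tool dosed one day after seeding with one drug alone or with a fixed anchor-drug dose plus five library-drug doses (not always all listed) in √10 steps, then fixed, stained and imaged at 4× after 5 days.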

[2] = compound: Cn1cc(-c2cnn3c(N)c(Br)c([C@@H]4CCCNC4)nc23)cn1 + Cc1nc(Nc2ncc(C(=O)Nc3c(C)cccc3Cl)s2)cc(N2CCN(CCO)CC2)n1 [Dasatinib] (partner 0.075 µM)
In short: as §1

[3] = compound: Cn1cc(-c2cnn3c(N)c(Br)c([C@@H]4CCCNC4)nc23)cn1 + Nc1ncn([C@H]2C[C@H](O)[C@@H](CO)O2)c(=O)n1 [Decitabine] (partner 2 µM)
In short: as §1

[4] = compound: Cn1cc(-c2cnn3c(N)c(Br)c([C@@H]4CCCNC4)nc23)cn1 + CCNC(=O)c1noc(-c2cc(C(C)C)c(O)cc2O)c1-c1ccc(CN2CCOCC2)cc1 [Luminespib] (partner 0.01 µM)
In short: as §1

Cell Line | relative viability ([1]; first compound 0.05 µM) | relative viability ([1]; first compound 0.1581 µM) | relative viability ([1]; first compound 0.5 µM) | relative viability ([1]; first compound 1.581 µM) | relative viability ([1]; first compound 5 µM) | relative viability ([2]; first compound 0.05 µM) | relative viability ([2]; first compound 0.1581 µM) | relative viability ([2]; first compound 0.5 µM) | relative viability ([2]; first compound 1.581 µM) | relative viability ([2]; first compound 5 µM) | relative viability ([3]; first compound 0.05 µM) | relative viability ([3]; first compound 0.1581 µM) | relative viability ([3]; first compound 0.5 µM) | relative viability ([3]; first compound 1.581 µM) | relative viability ([3]; first compound 5 µM) | relative viability ([4]; first compound 0.05 µM) | relative viability ([4]; first compound 0.1581 µM) | relative viability ([4]; first compound 0.5 µM) | relative viability ([4]; first compound 1.581 µM) | relative viability ([4]; first compound 5 µM)
NCI-H1734 | 0.918 | 1.01 | 0.908 | 0.799 | 0.694 | 0.469 | 0.506 | 0.435 | 0.345 | 0.338 | 0.518 | 0.491 | 0.49 | 0.437 | 0.448 | 0.197 | 0.185 | 0.201 | 0.178 | 0.149
NCI-H1755 | 0.997 | 0.943 | 0.91 | 0.95 | 0.821 | 0.4 | 0.42 | 0.42 | 0.407 | 0.253 | 0.722 | 0.81 | 0.774 | 0.793 | 0.855 | 0.465 | 0.534 | 0.394 | 0.562 | 0.194
NCI-H1793 | 0.71 | 0.806 | 0.63 | 0.683 | 0.518 | 0.449 | 0.416 | 0.306 | 0.385 | 0.184 | 0.532 | 0.543 | 0.542 | 0.498 | 0.178 | 0.211 | 0.815 | 0.233 | 0.172 | 0.152
NCI-H1915 | 1.18 | 1.15 | 1.09 | 1.15 | 1.09 | 0.307 | 0.351 | 0.355 | 0.347 | 0.283 | 0.225 | 0.255 | 0.299 | 0.24 | 0.311 | 0.987 | 0.86 | 0.722 | 0.667 | 0.695
NCI-H1944 | 0.895 | 0.953 | 0.834 | 0.799 | 0.689 | 0.23 | 0.206 | 0.197 | 0.192 | 0.179 | 0.439 | 0.468 | 0.448 | 0.482 | 0.356 | 0.705 | 0.671 | 0.706 | 0.635 | 0.344
NCI-H1975 | 0.965 | 0.995 | 0.738 | 0.807 | 0.884 | 0.393 | 0.355 | 0.409 | 0.331 | 0.346 | 0.433 | 0.458 | 0.767 | 0.388 | 0.396 | 0.105 | 0.197 | 0.256 | 0.139 | 0.167
NCI-H1993 | 0.747 | 0.806 | 0.483 | 0.667 | 0.657 | 0.619 | 0.601 | 0.545 | 0.549 | 0.507 | 0.602 | 0.49 | 0.621 | 0.55 | 0.524 | 1.03 | 0.887 | 0.543 | 0.666 | 0.567
NCI-H2009 | 1.24 | 1.32 | 1.05 | 1.16 | 1.14 | 0.3 | 0.291 | 0.257 | 0.219 | 0.216 | 0.384 | 0.369 | 0.377 | 0.37 | 0.387 | 1.04 | 1.09 | 0.98 | 0.962 | 0.889
NCI-H2023 | 0.785 | 0.604 | 0.688 | 0.201 | 0.178 | 0.616 | 0.513 | 0.427 | 0.225 | 0.156 | 0.228 | 0.219 | 0.21 | 0.167 | 0.127 | 0.873 | 0.305 | 0.234 | 0.167 | 0.123
NCI-H2085 | 0.917 | 0.944 | 0.986 | 0.894 | 0.625 | 0.239 | 0.235 | 0.229 | 0.24 | 0.203 | 0.532 | 0.594 | 0.551 | 0.545 | 0.624 | 0.4 | 0.477 | 0.461 | 0.417 | 0.339
NCI-H2087 | 1.18 | 1.22 | 0.989 | 1.32 | 1 | 0.856 | 0.936 | 1.09 | 0.835 | 0.809 | 0.258 | 0.25 | 0.231 | 0.331 | 0.347 | 0.143 | 0.168 | 0.192 | 0.151 | 0.175
NCI-H2126 | 1.2 | 1.3 | 1.11 | 1.02 | 1.53 | 0.581 | 0.58 | 0.568 | 0.506 | 0.488 | 0.544 | 0.581 | 0.563 | 0.526 | 0.632 | 0.755 | 0.964 | 0.983 | 0.608 | 0.595
